Test results reported in US20170151266A1, “METHODS AND COMPOSITIONS FOR ENHANCED DRUG DELIVERY TO THE EYE AND EXTENDED DELIVERY FORMULATIONS” (THE REGENTS OF THE UNIVERSITY OF COLORADO, A BODY, priority 2011, published 2017).
Where “and” joins values, the source holds several entries; their conditions need not be identical. Identical values can stand only once. Values belong to the compound of their own block, whether it stands above or below them.

How the values were obtained:
[1] = In vitro transscleral transport of budesonide/budesonide pro-drugs; type: in vitro ADME, bovine; details: sclera to RPE direction (A to B); 6 h; 37° C.
Description: Freshly excised bovine eyes were used in all studies. […] Equatorial region of the remaining sclera-choroid-[…]) was used as is for SCRPE transport studies. […] Isotonic assay buffer (pH 7.4) with the following composition was used during the entire tissue isolation procedure and transport study: […] Two hundred microliters of sample was collected from the receiver side at specific time intervals and replenished with fresh buffer. The drug/pro-drug content in the receiver and donor samples was analyzed using an LC-MS/MS method.

[2] = Aqueous solubility (Solaq) listed in physicochemical property tables; details: pH 7.4, 25° C.
ARPE19 cells = details: at nanomolar concentrations, glucocorticoid-receptor mediated; cited from earlier work
[3] = Pharmacokinetic model of budesonide succinate transport; parameters: species or system bovine; details: PK model, A to B in presence of inhibitor (FIG. 4A)
Description: Circles on left side (5 BSA; 6 B) represent the donor chamber whereas circles on right side (7 BSA; 8 B) represent the receiver chamber for BSA transport in A to B direction. 6 B and 8 B were included and represent budesonide formed/transported during the course of transport study. A separate compartment was included to account for the pro-drug/parent drug loss due to tissue absorption. K5>0 represents rate constant for drug loss into the tissue, K5>6 and K7>8 represent rate constants for pro-drug conversion into parent drug on donor and receiver side respectively. […] K5>7 Act represent active transport rate constant and contribution (0.5%) of active diffusion in BSA transport.
The model was developed in such a way that it accounted for transport of pro-drug from the donor to the receiver side, transport of parent drug formed in the donor chamber to the receiver side over the period of transport study, loss of pro-drug/drug into the tissues and any backward transport from the receiver to the donor side. The transport rate constants for parent drug and pro-drug were calculated from the cumulative percentage transport values. Rate constant for conversion of pro-drug to the parent drug was calculated from the percentage of the pro-drug and parent drug formed. Model was run with the dose amounts observed in the donor and receiver sides after 6 h transport studies. […]

[4] = Ex vivo transscleral delivery after posterior subconjunctival injection in euthanized rats; parameters: species or system Brown Norway (BN) rats
Description: All animals were handled according to the ARVO statement for the use of Animals in Ophthalmic and Vision Research. […] Drug suspensions were shaken before each posterior subconjunctival injection. Rats were divided into two groups. […] Twenty-five microliters of budesonide suspension was injected using a 30 G needle in the posterior subconjunctival space of one eye of each animal and the other eye was not treated. At the end of 1 h, eyes were enucleated and immediately frozen in dry ice and isopentane bath. All samples were stored at −80 ° C. until LCMS/MS analysis. […] At the end of 1 h, the eyes were enucleated and frozen in a similar manner as above until analysis. Periocular tissue samples were also collected from both the groups at the end of the study. Different ocular tissues including sclera, choroid-RPE, retina, and vitreous were isolated and analyzed for drug levels.

[5] = 10 μl eye drop, 2 mg/ml; 1 h
Description: At the end of 1 h, the animals were euthanized and the eyes were enucleated. Periocular tissue and plasma samples were collected.
Sample processing: Acetonitrile precipitation method was used for drug extraction from the tissues. Briefly, eyes from each eye drop study were dissected for tissue isolation. Tissues were homogenized in 250 μl water (pH 7.4 adjusted with 5 mM ammonium acetate) containing indoprofen as internal standard at a concentration of 500 ng/ml (1000 ng/ml stock was made). Similar volume of acetonitrile was added and mixed well by vortexing for 30 minutes. Samples were centrifuged at 15,000 rpm for 30 minutes. Supernatant was collected for LC-MS/MS analysis.
Total run time was 5.5 min.

[6] = In vitro transport across bovine cornea
Description: (§1) Freshly excised bovine eyes procured from a local slaughter house were used for all in vitro transport studies. Fatty or adherent tissue all around the eye is removed first. Cornea and conjunctiva were then removed. For isolation of sclera and choroid-RPE (CRPE), the anterior segment of the eye was removed with a circumferential cut below the limbus. The eye was cut into two halves along the geometric axis, a line joining the anterior pole (corneal center) and the posterior pole (center of the scleral curve), and the vitreous was removed. Neural retina was removed by exposing the eyecup to isotonic assay buffer at pH 7.4. Equatorial region of the remaining sclera-choroid-RPE (SCRPE) was used as is for SCRPE transport studies. All transport studies for celecoxib were performed in presence of 5% HP-β-CD. […] Drug solutions were prepared in the following manner: Celecoxib (100 μg/ml) in presence of 5% HP-β-CD was made after triturating celecoxib with HP-β-CD in a pestle-mortar followed by addition of assay buffer. The mixture was stirred for 24 h. Before use, the clear solution was filtered through 0.2 μ filter. […] All transport experiments were performed for 6 h at 37° C. Samples were collected at regular time intervals from the receiver side with replacement with fresh assay buffer (pH 7.4). Transport studies with all solutes were performed in A to B direction meaning outward to inward (eg. sclera towards choroid-RPE) movement of the solute was measured. […] Samples from all the transport studies were analyzed on LC-MS/MS.

[7] = In vitro transport across bovine conjunctiva
Description: Freshly excised bovine eyes procured from a local slaughter house were used for all in vitro transport studies. Fatty or adherent tissue all around the eye is removed first. Cornea and conjunctiva were then removed. For isolation of sclera and choroid-RPE (CRPE), the anterior segment of the eye was removed with a circumferential cut below the limbus. The eye was cut into two halves along the geometric axis, a line joining the anterior pole (corneal center) and the posterior pole (center of the scleral curve), and the vitreous was removed. Neural retina was removed by exposing the eyecup to isotonic assay buffer at pH 7.4. Equatorial region of the remaining sclera-choroid-RPE (SCRPE) was used as is for SCRPE transport studies. All transport studies for celecoxib were performed in presence of 5% HP-β-CD. […] Drug solutions were prepared in the following manner: Celecoxib (100 μg/ml) in presence of 5% HP-β-CD was made after triturating celecoxib with HP-β-CD in a pestle-mortar followed by addition of assay buffer. The mixture was stirred for 24 h. Before use, the clear solution was filtered through 0.2 μ filter. […] Transport studies with all solutes were performed in A to B direction meaning outward to inward (eg. sclera towards choroid-RPE) movement of the solute was measured. […] Samples from all the transport studies were analyzed on LC-MS/MS.

[8] = for binding/association constant (K, Ka) with melanin: 1 mg/ml melanin suspension in PBS (pH 7.4), 37° C., celecoxib 2 μg/ml, pro-drugs 250 μg/ml
[9] = In vitro transport across bovine sclera-choroid-RPE (celecoxib series)
Description: as §1

[10] = tested on: blood retinal barrier leakage; details: diabetic rats; eye drops twice daily for 60 days; C-SA 0.2% w/v, C-SA-T 1.0% w/v
Description: The animals were divided into four groups.
Plasma samples were stored at −80° C.

[11] = tested on: blood retinal barrier leakage; details: diabetic rats; eye drops twice daily for 60 days; C-SA 0.2% w/v, C-SA-T 1.0% w/v; remark: listed apart in the source
Description: After overnight fasting for 12-16 h, an intraperitoneal injection of 30 mg/ml solution of streptozotocin in 10 mM citrate buffer (pH 4.5) was administered (60 mg/kg body weight) to induce diabetes. After 3-4 h of streptozotocin injection, animals were put on regular diet and 24 h after streptozotocin injection, blood sample (5-10 μl) was collected via tail vein. The blood glucose levels in the animals were determined with a glucose monitor (One Touch; Life Scan Inc., Milpitas, Calif.). Animals with blood glucose levels greater than 250 mg/dL were considered diabetic. The animals were divided into four groups. […] Treatment was started immediately after diabetes induction. […]
Retinal FITC-Dextran Leakage: BN rats from each group were used for the assessment of FITC-dextran leakage. […] The relative FITC-dextran fluorescence units in 1 ml of supernatant were measured using a spectrofluorometer set at an excitation wavelength of 483 nm and an emission wavelength of 538 nm. Fluorescence of blank PBS was also
measured for subtraction from each sample reading. Final concentration of FITC-dextran was expressed as μg/g tissue. […] 20 μ (˜20 mg) of plasma was diluted to 1 ml (50 times dilution) with PBS for quantification under the linear range of the standard samples. […] The amount of FITC-dextran leakage in to the ocular tissues was calculated using the following equation, after correcting for dilutions.

retinal leukostasis = details: diabetic rats; eye drops twice daily for 60 days; C-SA 0.2% w/v, C-SA-T 1.0% w/v
Description: After overnight fasting for 12-16 h, an intraperitoneal injection of 30 mg/ml solution of streptozotocin in 10 mM citrate buffer (pH 4.5) was administered (60 mg/kg body weight) to induce diabetes. After 3-4 h of streptozotocin injection, animals were put on regular diet and 24 h after streptozotocin injection, blood sample (5-10 μl) was collected via tail vein. The blood glucose levels in the animals were determined with a glucose monitor (One Touch; Life Scan Inc., Milpitas, Calif.). Animals with blood glucose levels greater than 250 mg/dL were considered diabetic. The animals were divided into four groups. […] Treatment was started immediately after diabetes induction. Both eyes were dosed twice daily for 60 days in group 2, 3 and 4 with their respective treatment. Animals in groups 2-4 were sacrificed at the end of 2 months. Normal animals in group 1 were sacrificed immediately after acclimatization in the animal facility. For each of the three assays, namely, FITC-Dextran leakage, vitreous-to-plasma protein ratio, and leukostasis, we used 4 animals from each of the four groups mentioned above.
BN rats from each group were used for the assessment of adherent leukocytes. At 1 hour after last dose on day 61, rats were sacrificed for ex-vivo retinal leukostasis assay. First, the animals were anesthetized with ketamine (80 mg/kg) and xylazine (12 mg/kg) administered intraperitoneally. […]

[12] = In vivo delivery of bevacizumab in rats, ocular fluorophotometry after intravitreal injection; parameters: species or system rat; details: day 15
Description: Rats were anesthetized by intraperitoneal injection of ketamine (35 mg/kg)/xylazine (5 mg/kg) and once the rats were under anesthesia, betadine solution was applied on the eye surface, and intravitreal injections were made using a 30-G needle. […] Baseline fluorescence values of eyes were monitored before injecting the formulations. At each time point, three fluorometric scans were taken and the mean value was used.

[13] = Group 2, 25 μl of 1 mg/ml suspension, posterior subconjunctival, 1 h
[14] = end of 6 h, 37° C., 100 μg/ml, celecoxib in 5% HP-β-CD

cumulative percentage transport [1]: 0.2%
Solaq ([2]; Table 1): Budesonide (0.02) mg/ml
Compound: CCCC1O[C@@H]2C[C@H]3[C@@H]4CCC5=CC(=O)C=C[C@]5(C)[C@H]4[C@@H](O)C[C@]3(C)[C@]2(C(=O)CO)O1 (stereo partly drawn) [Budesonide]
VEGF secretion and mRNA expression (ARPE19 cells): capable of reducing

contribution of active diffusion in BSA transport [3]: 0.5%
ex vivo drug level (pro-drug) in CRPE [4, 13]: 0.6 μg/g tissue
ex vivo drug level (pro-drug) in retina [4, 13]: 0.2 μg/g tissue
ex vivo drug level (pro-drug) in sclera [4, 13]: 1.9 μg/g tissue
ex vivo drug level (pro-drug) in vitreous [4, 13]: 0.05 μg/g tissue
ex vivo level of budesonide released from budesonide succinate in CRPE [4, 13]: 7.2 μg/g tissue
ex vivo level of budesonide released from budesonide succinate in retina [4, 13]: 2.2 μg/g tissue
ex vivo level of budesonide released from budesonide succinate in sclera [4, 13]: 11.0 μg/g tissue
ex vivo level of budesonide released from budesonide succinate in vitreous [4, 13]: 0.5 μg/g tissue
budesonide delivery in sclera, choroid-RPE and retina, higher with prodrug compared to plain drug budesonide ([4]; rat): 2-5 folds
Compound: Succinic acid mono-budesonide ester [budesonide succinate]

Compound: Cc1ccc(-c2cc(C(F)(F)F)nn2-c2ccc(S(N)(=O)=O)cc2)cc1 [Celecoxib, reference compound]
level in cornea, celecoxib compared with CSA [5]: higher than CSA
level in iris and CRPE, celecoxib compared with C-SA [5]: higher
level in periocular space, celecoxib compared with CSA [5]: lower than that of CSA
Solaq ([2]; Table 2): Celecoxib (0.005) mg/ml
Cumulative percent transport across bovine cornea [6, 14]: 0.017%
Transport across bovine conjunctiva [7, 14]: 3.9%
binding/association constant (K, Ka) with melanin [8]: 1.01×10^6 M^−1 and 1.01 E6 M^−1
Transport across bovine sclera-choroid-RPE [9, 14]: approximately 0.1%

Transport across bovine cornea, times higher than celecoxib [6]: ~25 times
reduction in transport across cornea with taurine as an inhibitor [6]: > 50%
Transport across bovine conjunctiva, times higher than celecoxib [7]: ~4 times
binding/association constant (K, Ka) with melanin [8]: 7.39×10^3 M^−1 and 7.93 E3 M^−1
melanin binding, fold lower than that of celecoxib ([8]; ITC): ~130 fold
Transport across bovine sclera-choroid-RPE, times higher than celecoxib [9]: ~20 times
reduction in transport across SCRPE with taurine as an inhibitor [9]: > 50%
Compound: Cc1ccc(-c2cc(C(F)(F)F)nn2-c2ccc(S(=O)(=O)NC(=O)CCC(=O)NCCS(=O)(=O)O)cc2)cc1 [C-SA-T, celecoxib succinamidic acid taurine]
average vitreous-to-plasma protein ratio [10]: 0.28±0.06
retinal FITC-dextran leakage (mean± s.d.) [11]: 23.64 ± 4.20 µL/g/min
Mean retinal leukocyte count (retinal leukostasis): 47±10

Solaq ([2]; Table 4): Ruboxistaurin (0.029) mg/ml
Compound: CN(C)C[C@@H]1CCn2cc(c3ccccc32)C2=C(C(=O)NC2=O)c2cn(c3ccccc23)CCO1 [Ruboxistaurin]

Compound: Alexa-bevacizumab solution: Alexa Fluor 488 conjugated bevacizumab injected as solution (control)
Alexa-bevacizumab concentration in the vitreous [12]: 2.2 µg/mL

binding/association constant (K, Ka) with melanin [8]: 8.89×10^3 M^−1 and 8.89 E3 M^−1
Compound: Cc1ccc(-c2cc(C(F)(F)F)nn2-c2ccc(S(=O)(=O)NC(=O)CCC(=O)O)cc2)cc1 [C-SA, Celecoxib succinamidic acid]
retinal FITC-dextran leakage (mean± s.d.) [11]: 93.66 ± 37.08 µL/g/min
Mean retinal leukocyte count (retinal leukostasis): 95±12
